Source: ChEMBL document CHEMBL4265899, “Trisubstituted thiazoles as potent and selective inhibitors of Plasmodium falciparum protein kinase G (PfPKG)” (Bioorg Med Chem Lett, 2018)

Key:
Plasmodium falciparum = test: Antimalarial activity against Plasmodium falciparum after 48 hrs by microbeta scintillation counting-based [3H]-hypoxanthine incorporation assay; format: functional, organism-based
[1] = biological target: cGMP-dependent protein kinase (Plasmodium falciparum, UniProt W7JX98); test: Inhibition of Plasmodium falciparum protein kinase G
cGMP-dependent protein kinase, sequence (W7JX98 whole entry): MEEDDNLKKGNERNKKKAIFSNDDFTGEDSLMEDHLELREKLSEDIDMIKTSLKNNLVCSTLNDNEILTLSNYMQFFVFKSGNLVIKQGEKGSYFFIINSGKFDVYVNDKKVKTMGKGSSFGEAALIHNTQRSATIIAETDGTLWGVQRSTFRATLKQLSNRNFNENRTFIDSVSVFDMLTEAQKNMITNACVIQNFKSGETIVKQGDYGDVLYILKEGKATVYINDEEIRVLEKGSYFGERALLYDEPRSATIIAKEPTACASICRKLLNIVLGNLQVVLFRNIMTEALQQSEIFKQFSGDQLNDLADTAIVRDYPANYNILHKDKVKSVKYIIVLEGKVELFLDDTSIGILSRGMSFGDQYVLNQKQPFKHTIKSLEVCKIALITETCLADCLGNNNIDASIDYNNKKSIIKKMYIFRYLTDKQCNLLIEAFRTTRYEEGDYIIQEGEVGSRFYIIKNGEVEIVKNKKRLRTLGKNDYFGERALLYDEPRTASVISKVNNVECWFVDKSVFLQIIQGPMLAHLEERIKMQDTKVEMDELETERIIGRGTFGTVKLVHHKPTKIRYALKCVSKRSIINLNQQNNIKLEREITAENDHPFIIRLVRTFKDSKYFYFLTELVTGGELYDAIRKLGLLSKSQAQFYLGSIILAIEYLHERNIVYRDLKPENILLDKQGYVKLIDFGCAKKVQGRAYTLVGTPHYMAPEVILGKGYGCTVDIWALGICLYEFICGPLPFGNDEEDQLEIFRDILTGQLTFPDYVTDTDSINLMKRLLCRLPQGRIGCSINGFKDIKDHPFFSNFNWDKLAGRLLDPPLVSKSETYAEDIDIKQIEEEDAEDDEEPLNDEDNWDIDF

[2] = biological target: Misshapen-like kinase 1 (Homo sapiens) (UniProt Q8N4C8); test: Inhibition of human MINK1 at 100 nM
Misshapen-like kinase 1 (Homo sapiens), sequence (Q8N4C8 whole entry, looked up): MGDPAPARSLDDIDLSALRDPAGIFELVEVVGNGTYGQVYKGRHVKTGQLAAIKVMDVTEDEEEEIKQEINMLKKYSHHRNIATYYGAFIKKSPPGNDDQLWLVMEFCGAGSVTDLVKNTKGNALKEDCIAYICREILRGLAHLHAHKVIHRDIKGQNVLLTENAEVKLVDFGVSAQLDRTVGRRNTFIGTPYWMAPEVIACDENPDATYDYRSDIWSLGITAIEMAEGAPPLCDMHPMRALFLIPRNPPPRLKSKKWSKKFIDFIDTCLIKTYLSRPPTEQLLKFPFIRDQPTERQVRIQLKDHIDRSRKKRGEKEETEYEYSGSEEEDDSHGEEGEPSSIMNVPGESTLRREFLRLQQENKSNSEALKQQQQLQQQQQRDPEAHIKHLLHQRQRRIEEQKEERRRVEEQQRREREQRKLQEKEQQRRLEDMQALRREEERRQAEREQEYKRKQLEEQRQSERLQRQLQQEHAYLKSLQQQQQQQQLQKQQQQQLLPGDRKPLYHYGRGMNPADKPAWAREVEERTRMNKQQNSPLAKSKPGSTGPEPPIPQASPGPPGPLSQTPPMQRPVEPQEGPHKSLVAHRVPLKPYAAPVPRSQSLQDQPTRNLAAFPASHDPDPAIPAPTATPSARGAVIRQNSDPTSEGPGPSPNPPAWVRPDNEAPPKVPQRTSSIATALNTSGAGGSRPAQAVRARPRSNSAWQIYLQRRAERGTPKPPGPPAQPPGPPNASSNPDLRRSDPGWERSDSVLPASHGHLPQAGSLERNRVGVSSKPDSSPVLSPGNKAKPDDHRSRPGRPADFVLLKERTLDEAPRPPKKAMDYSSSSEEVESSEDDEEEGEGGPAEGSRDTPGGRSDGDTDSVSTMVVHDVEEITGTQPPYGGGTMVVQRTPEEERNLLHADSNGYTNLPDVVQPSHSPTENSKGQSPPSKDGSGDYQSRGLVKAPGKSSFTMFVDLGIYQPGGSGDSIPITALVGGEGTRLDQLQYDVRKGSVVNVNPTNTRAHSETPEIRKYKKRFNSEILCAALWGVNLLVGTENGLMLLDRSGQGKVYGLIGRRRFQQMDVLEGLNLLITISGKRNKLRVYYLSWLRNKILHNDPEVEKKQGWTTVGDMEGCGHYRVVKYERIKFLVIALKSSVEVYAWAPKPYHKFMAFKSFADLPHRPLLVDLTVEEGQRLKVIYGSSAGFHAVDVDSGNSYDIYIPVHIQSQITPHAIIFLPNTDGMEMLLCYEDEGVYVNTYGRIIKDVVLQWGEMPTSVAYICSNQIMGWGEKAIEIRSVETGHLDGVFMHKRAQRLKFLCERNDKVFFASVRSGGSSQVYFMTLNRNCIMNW

[3] = biological target: Tyrosine-protein kinase Lck (Homo sapiens) (UniProt P06239); test: Inhibition of human LCK at 100 nM
Tyrosine-protein kinase Lck (Homo sapiens), sequence (P06239 2-509 limits assumed): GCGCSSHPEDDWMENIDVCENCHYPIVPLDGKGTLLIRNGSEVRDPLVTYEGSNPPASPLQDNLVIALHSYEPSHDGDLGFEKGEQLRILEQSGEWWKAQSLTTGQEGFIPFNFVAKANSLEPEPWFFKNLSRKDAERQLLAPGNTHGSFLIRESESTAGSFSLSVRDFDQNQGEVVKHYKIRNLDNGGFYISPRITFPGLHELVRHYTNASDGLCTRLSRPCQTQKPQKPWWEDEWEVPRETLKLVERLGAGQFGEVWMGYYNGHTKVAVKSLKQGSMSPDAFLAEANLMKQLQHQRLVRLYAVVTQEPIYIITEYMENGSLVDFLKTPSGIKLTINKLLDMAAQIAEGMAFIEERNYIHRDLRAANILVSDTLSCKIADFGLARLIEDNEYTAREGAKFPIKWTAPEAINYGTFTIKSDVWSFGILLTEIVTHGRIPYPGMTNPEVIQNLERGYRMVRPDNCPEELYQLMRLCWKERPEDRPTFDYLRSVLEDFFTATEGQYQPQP

[4] = biological target: Tyrosine-protein kinase Yes (Homo sapiens) (UniProt P07947); test: Inhibition of human YES1 at 100 nM
Tyrosine-protein kinase Yes (Homo sapiens), sequence (P07947 2-543 limits assumed): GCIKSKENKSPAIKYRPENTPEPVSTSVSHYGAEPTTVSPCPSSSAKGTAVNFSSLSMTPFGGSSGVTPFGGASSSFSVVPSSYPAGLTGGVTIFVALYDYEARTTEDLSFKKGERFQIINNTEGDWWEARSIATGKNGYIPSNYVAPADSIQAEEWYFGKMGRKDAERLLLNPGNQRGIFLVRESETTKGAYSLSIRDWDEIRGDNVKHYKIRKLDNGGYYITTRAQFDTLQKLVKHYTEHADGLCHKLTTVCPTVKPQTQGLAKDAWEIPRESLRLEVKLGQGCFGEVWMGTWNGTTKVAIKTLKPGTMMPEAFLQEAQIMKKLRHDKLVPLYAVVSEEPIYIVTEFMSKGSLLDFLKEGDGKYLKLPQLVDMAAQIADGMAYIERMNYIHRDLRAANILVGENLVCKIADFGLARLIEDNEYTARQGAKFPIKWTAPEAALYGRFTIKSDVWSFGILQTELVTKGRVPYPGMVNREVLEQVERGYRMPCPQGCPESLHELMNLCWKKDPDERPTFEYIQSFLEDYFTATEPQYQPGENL

[5] = biological target: T1, Inhibitor of nuclear factor kappa-B kinase subunit epsilon (Homo sapiens) (UniProt Q14164); conditions: at 100 nM
T1 sequence (whole entry): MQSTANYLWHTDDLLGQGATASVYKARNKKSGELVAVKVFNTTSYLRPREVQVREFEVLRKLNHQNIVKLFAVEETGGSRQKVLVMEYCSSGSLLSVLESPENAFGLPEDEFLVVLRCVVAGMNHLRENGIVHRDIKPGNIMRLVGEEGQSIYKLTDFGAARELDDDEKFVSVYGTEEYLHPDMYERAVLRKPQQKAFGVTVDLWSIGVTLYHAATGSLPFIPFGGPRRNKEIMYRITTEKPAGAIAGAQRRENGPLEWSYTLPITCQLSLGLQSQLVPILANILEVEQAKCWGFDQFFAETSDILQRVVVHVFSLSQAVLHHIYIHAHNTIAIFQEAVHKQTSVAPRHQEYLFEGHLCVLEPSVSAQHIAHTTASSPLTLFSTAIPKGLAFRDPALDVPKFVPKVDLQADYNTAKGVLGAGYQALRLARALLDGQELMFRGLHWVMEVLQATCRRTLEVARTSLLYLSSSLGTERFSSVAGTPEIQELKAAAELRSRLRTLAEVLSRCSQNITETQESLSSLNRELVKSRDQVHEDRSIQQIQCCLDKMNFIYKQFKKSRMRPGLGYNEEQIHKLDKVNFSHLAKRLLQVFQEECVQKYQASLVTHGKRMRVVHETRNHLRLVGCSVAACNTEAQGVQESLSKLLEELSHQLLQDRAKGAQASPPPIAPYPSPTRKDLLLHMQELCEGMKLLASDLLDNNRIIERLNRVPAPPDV
Description: Inhibition of human IKKepsilon at 100 nM

[6] = biological target: Receptor tyrosine-protein kinase erbB-4 (Homo sapiens) (UniProt Q15303); test: Inhibition of human HER4 at 100 nM
Receptor tyrosine-protein kinase erbB-4 (Homo sapiens), sequence (Q15303 whole entry): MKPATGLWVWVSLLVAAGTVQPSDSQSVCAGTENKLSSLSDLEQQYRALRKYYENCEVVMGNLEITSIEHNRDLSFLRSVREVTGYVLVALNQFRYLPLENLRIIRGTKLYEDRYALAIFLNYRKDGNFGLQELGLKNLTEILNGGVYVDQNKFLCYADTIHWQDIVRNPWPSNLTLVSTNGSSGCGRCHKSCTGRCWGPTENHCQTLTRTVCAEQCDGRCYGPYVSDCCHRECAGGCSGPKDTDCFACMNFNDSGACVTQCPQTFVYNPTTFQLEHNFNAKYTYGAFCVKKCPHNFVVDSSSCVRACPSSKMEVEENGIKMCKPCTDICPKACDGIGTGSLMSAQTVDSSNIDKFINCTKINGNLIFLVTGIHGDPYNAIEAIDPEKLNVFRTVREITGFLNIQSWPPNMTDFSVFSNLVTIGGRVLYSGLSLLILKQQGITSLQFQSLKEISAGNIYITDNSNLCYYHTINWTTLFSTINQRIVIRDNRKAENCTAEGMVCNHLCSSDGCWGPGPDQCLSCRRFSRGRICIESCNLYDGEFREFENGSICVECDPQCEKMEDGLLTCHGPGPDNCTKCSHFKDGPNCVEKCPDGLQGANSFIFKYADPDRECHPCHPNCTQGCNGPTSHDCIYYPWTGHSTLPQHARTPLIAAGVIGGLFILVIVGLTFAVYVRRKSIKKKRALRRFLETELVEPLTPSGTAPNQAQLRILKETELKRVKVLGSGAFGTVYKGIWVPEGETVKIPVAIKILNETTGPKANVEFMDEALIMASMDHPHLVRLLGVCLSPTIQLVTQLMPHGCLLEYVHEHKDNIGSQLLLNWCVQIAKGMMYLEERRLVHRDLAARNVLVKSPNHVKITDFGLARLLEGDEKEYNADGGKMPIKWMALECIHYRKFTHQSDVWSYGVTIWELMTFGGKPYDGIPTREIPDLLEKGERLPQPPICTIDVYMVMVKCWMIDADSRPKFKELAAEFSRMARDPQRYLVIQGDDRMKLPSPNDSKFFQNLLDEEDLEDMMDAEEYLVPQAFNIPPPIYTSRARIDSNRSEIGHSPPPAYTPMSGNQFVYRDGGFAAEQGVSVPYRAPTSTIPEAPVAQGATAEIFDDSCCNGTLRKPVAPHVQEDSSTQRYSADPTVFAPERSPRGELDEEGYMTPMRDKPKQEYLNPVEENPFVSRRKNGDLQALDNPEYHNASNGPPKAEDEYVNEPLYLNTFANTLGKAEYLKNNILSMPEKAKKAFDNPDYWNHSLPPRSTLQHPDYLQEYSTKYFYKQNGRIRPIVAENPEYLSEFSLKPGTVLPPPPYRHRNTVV

Homo sapiens = species: Homo sapiens; conditions: at 100 nM
Description: Inhibition of human PKA at 100 nM

[7] = biological target: T2, Inhibitor of nuclear factor kappa-B kinase subunit beta (Homo sapiens) (UniProt O14920); conditions: at 100 nM
T2 sequence (whole entry): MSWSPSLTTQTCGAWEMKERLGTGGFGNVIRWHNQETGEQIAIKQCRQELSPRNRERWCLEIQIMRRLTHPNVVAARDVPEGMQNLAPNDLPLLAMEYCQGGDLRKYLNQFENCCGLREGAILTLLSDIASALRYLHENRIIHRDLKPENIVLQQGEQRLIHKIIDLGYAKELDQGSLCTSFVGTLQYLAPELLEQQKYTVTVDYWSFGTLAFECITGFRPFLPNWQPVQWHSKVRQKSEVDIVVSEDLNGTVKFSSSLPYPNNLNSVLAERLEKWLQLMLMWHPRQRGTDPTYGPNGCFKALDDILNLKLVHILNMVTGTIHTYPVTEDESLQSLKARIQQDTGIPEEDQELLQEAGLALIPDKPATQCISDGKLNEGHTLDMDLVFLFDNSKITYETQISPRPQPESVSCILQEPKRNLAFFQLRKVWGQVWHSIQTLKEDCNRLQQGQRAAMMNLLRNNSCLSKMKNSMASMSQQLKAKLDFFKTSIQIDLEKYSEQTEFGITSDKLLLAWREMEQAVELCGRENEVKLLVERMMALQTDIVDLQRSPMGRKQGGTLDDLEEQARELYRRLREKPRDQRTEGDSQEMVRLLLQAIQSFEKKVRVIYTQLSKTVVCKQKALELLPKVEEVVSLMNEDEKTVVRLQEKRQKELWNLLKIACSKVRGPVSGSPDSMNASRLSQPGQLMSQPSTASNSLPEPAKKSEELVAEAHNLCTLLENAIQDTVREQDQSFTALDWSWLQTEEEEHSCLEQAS
Description: Inhibition of human IKKb at 100 nM

[8] = biological target: T3, Serine/threonine-protein kinase D1 (Homo sapiens) (UniProt Q15139); test: Inhibition of human PKD1 at 100 nM
T3 sequence (whole entry): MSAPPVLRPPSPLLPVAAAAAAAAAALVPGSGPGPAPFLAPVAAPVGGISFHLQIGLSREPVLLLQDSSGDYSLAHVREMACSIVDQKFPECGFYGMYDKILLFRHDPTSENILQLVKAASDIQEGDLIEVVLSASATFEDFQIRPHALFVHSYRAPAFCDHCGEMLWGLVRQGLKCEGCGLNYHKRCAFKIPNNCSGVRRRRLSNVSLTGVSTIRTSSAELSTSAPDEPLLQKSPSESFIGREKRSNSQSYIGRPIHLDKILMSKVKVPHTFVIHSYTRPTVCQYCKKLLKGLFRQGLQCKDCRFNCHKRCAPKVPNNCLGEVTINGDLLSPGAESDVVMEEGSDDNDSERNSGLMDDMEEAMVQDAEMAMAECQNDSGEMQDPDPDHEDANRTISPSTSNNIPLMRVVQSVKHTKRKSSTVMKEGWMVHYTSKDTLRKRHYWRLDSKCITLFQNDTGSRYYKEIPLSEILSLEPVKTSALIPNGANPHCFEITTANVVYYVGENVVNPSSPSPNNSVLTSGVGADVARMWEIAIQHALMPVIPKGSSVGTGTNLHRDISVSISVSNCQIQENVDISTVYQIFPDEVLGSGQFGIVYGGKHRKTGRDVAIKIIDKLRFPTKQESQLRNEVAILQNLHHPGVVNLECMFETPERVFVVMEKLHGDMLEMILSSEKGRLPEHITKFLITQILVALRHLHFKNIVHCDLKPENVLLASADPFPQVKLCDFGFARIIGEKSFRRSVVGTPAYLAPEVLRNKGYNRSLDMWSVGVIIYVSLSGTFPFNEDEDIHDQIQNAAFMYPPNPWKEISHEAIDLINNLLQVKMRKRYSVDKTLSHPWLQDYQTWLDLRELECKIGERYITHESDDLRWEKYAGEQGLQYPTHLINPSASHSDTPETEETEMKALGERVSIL

[9] = biological target: Casein kinase I isoform alpha (Homo sapiens) (UniProt P48729); test: Inhibition of human CK1 at 100 nM
Casein kinase I isoform alpha (Homo sapiens), sequence (P48729 2-337 limits assumed): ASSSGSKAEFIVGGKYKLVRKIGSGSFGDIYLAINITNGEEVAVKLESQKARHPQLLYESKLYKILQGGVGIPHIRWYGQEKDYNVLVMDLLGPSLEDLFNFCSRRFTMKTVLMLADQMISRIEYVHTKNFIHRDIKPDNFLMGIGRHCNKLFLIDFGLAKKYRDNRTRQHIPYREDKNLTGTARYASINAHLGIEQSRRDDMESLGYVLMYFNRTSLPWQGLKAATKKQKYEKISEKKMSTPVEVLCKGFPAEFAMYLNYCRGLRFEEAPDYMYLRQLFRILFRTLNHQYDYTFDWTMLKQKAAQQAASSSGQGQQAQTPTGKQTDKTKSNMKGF

Row | SMILES | EC50 (Plasmodium falciparum) [nM] | IC50 [1] [nM] | further results
1 | CN1CCC(c2nc(-c3cccc(S(C)(=O)=O)c3)c(-c3ccnc(NC4CCOCC4)n3)s2)CC1 | 1560 | 9 | –
2 | CNc1nccc(-c2sc(C3CCN(C)CC3)nc2-c2ccc(F)cc2)n1 | 1490 | 15 | –
3 | CN1CCC(c2nc(-c3cccc(S(C)(=O)=O)c3)c(-c3ccnc(NCC4CC4)n3)s2)CC1 | 1330 | 6 | –
4 | CN1CCC(c2nc(-c3ccc(F)cc3)c(-c3ccnc(Nc4ccc(N5CCNCC5)cc4)n3)s2)CC1 | – | – | inhibition [2]: > 90%; inhibition [3]: > 90%; inhibition [4]: > 90%; inhibition [5]: < 70%; inhibition [6]: > 90%; inhibition (Homo sapiens): < 70%; inhibition [7]: < 70%; inhibition [8]: > 90%; inhibition [9]: > 90%
5 | CN1CCC(c2nc(-c3cccc(S(C)(=O)=O)c3)c(-c3ccnc(NC4CC4)n3)s2)CC1 | – | 17 | –
6 | CN1CCC(c2nc(-c3ccc(F)cc3)c(-c3ccnc(Nc4ccc(C5CCNCC5)cc4)n3)s2)CC1 | 25 | 0.3 | –
7 | CN1CCC(c2nc(-c3cccc(S(C)(=O)=O)c3)c(-c3ccnc(N)n3)s2)CC1 | 4570 | 33 | –
8 | CN1CCC(c2nc(-c3ccc(F)cc3)c(-c3ccnc(Nc4ccc(N5CCN(C)CC5)cc4)n3)s2)CC1 | 155 | 1 | –
9 | CN1CCC(c2nc(-c3ccc(F)cc3)c(-c3ccncn3)s2)C1 (stereo not given) | 144 | 6 | –
10 | Cc1nc(C2CCN(C)CC2)sc1-c1ccnc(Nc2ccc(N3CCNCC3)cc2)n1 | – | 149 | –
11 | Fc1ccc(-c2nc(C3CCNCC3)sc2-c2ccnc(Nc3ccc(N4CCNCC4)cc3)n2)cc1 | 73 | 0.5 | –
12 | CN1CCC(c2nc(-c3ccc(F)cc3)c(-c3ccnc(N)n3)s2)CC1 | 1810 | 17 | –
13 | CN1CCC(c2nc(C3CC3)c(-c3ccnc(Nc4ccc(N5CCNCC5)cc4)n3)s2)CC1 | 90 | 47 | –
14 | CN1CCC(c2cc(-c3ccncc3)c(-c3ccc(F)cc3)[nH]2)CC1 | 450 | 6 | –
15 | CN(C)Cc1ccn2c(-c3ccnc(N)n3)c(-c3ccc(F)cc3)nc2c1 | 400 | 3 | –
